The IC90 is the point of the concentration-response curve where the effect stands at 90%. The term pIC50 denotes the IC50 on a negative log10 scale, so that one unit is a factor of ten.

pIC50: −log10 of the molar value.

For data set [1], the target named is T1, NLRP3 inflammasome (Mus musculus, UniProt Q8R4B8). Description: Inhibition of IL-1β production in LPS + ATP stimulated mouse whole blood. The class given is cell-based. As for the experimental part:
(§1) Inflammasome activation and whole blood assays were essentially carried out as described earlier. Details can be found in the supplementary information section accompanying this publication. A protocol for blood draws from healthy volunteers and use of the blood in preclinical assays was approved by Western Institutional Review Board, Inc (Puyallup, WA, USA). Informed consent was obtained from each donor prior to the first blood draw.
Cell viability was determined by addition of an equal volume of CellTiter-Glo® 2.0 reagent (Promega) to the remaining cells/supernatant in each well. Intracellular Caspase-1 activity was measured using the Caspase-Glo® assay (Promega) according to the manufacturer’s instructions. The biochemical capsase-1 assay was conducted at Reaction Biology Corporation (Malvern, USA). Human IL-1β, IL-1α, and TNFα and mouse IL-1β were measured in cell culture supernatants using homogeneous time resolved fluorescence assay kits (HTRF, Cisbio, Codolet, France). Human IL-18 was measured in cell culture supernatants using an ELISA kit (R&D Systems, Minneapolis, MN, USA). Plasma IL-1β concentrations were determined by Quantikine® ELISA (R&D Systems, Minneapolis, MN). […]
flagellin, prepared in Opt iMEM and combined with Lipofectamine 2000. […]

Data set [2] deals with T1, NLRP3 inflammasome. Description: Inhibition of IL-1β production in mouse PBMCs stimulated by LPS + nigericin. The class given is cell-based. Also noted: host or cells: mouse PBMCs; mouse bone-marrow derived macrophages; mouse whole blood (C57BL/6 in the ex vivo study). Particulars: Mouse PBMC, read-out: Geo Av IC50, IL-1β. As for the experimental part: as §1
Cell viability was determined by addition of an equal volume of CellTiter-Glo® 2.0 reagent (Promega) to the remaining cells/supernatant in each well. Intracellular Caspase-1 activity was measured using the Caspase-Glo® assay (Promega) according to the manufacturer’s instructions. The biochemical capsase-1 assay was conducted at Reaction Biology Corporation (Malvern, USA). Human IL-1β, IL-1α, and TNFα and mouse IL-1β were measured in cell culture supernatants using homogeneous time resolved fluorescence assay kits (HTRF, Cisbio, Codolet, France). Human IL-18 was measured in cell culture supernatants using an ELISA kit (R&D Systems, Minneapolis, MN, USA). Plasma IL-1β concentrations were determined by Quantikine® ELISA (R&D Systems, Minneapolis, MN).
4H). MS: m/z 433.1 (M+H+). […]

The nature of the next data set: Lipophilicity comparison. Type of data set: physicochemical. Particulars: compared with MCC950.

T1 sequence (Q8R4B8 whole entry): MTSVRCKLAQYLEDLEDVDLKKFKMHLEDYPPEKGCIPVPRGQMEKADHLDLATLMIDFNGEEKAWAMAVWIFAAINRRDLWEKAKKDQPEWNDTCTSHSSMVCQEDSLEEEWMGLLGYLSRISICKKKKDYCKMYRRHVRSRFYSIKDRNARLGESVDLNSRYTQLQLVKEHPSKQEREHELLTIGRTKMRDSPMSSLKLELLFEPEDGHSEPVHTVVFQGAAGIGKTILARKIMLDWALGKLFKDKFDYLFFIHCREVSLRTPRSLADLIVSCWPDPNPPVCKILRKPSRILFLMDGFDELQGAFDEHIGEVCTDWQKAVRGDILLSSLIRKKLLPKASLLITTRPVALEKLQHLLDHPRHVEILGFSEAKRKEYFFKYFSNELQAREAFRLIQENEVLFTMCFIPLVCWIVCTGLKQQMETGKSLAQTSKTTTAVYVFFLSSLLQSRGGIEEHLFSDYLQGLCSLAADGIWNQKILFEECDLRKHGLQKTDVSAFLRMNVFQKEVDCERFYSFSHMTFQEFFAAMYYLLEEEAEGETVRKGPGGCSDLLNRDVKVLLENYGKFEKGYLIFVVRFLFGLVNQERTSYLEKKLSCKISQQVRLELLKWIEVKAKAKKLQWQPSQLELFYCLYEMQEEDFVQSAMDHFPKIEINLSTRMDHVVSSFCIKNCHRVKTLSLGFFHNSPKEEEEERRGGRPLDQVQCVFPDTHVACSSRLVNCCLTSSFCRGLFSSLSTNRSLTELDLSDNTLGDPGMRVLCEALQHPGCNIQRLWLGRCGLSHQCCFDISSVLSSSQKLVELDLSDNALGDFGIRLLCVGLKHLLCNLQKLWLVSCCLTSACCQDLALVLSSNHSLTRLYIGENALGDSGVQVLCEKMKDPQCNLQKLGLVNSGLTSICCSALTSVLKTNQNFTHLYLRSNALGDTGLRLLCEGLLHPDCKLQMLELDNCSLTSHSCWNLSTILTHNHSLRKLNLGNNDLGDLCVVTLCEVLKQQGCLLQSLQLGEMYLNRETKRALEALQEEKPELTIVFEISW

For the compound `CO[C@@H]1COc2c(S(=O)(=O)NC(=O)Nc3c4c(cc5c3CCC5)CCC4)cnn2C1` [JT002], the 90% effect concentration (IC90) on NLRP3 inflammasome [1] (IL-1β, read-out: in vitro mouse whole blood IC90) is 716 nM. For the same compound, the pIC50 is 7.03 on NLRP3 inflammasome [1] (read-out: Geo Av IC50, IL-1β) and 7.60 on NLRP3 inflammasome [2]. In “Lipophilicity comparison”, the lipophilicity result was “lower lipophilicity than MCC950”.

The values above are taken from article PMC10439952, “JT002, a small molecule inhibitor of the NLRP3 inflammasome for the treatment of autoinflammatory disorders” (Scientific Reports, 2023).
